Data on 1 sequence can be found in US8178506B2, “Oligomeric compounds and compositions for use in modulation of small non-coding RNAs” (Regulus Therapeutics Inc., priority 2003, dated 2012).

Type in all cases: cell-based, human
The subject of one data set is mir-21 mature miRNA. Kind of data set: Northern blot of mature mir-21 in HeLa cells. The settings on record: 100 nM. The procedure:
In one embodiment, the expression of mir-21 (noted to be expressed at high levels in HeLa cells) was assessed in cells treated with oligomeric compounds. Using the transfection methods previously described, HeLa cells were treated with 100 nM of the uniform 2′-MOE oligomeric compound ISIS Number 327917 (SEQ ID NO: 335) targeting the mir-21 mature miRNA. Total RNA was isolated by lysing cells in 1 mL TRIZOL™ (Invitrogen) using the manufacturer's recommended protocols. […] Real-time RT-PCR analysis was also performed on HeLa cells treated with ISIS 327917 using a primer/probe set specific for the mir-21 pri-miRNA molecule [forward primer=ISIS 339332 ([…]; herein incorporated as SEQ ID NO.: 911), reverse primer-ISIS 339333 (TCGACTGGTGTTGCCATGA; herein incorporated as SEQ ID NO.: 912), and probe=ISIS 339334 ([…]; herein incorporated as SEQ ID NO.: 913)]. Total RNA was quantified using RiboGreen™ RNA quantification reagent (Molecular Probes, Inc. Eugene, Oreg.), expression levels observed for the target were normalized to 5.8S rRNA, and values were expressed relative to an untreated control (UTC).

The test system of the next data set is mir-21 miRNA. Kind of data set: pGL3-mir-21 sensor luciferase assay in HeLa cells. The source says: In order to assess the ability of miRNAs to bind predicted miRNA binding sites and regulate the expression of the luciferase reporter, in some embodiments, expression systems based on the pGL3-Control (Promega Corp., Madison Wis.) reporter vector and comprising either a mir-15a, mir-21, or a mir-23b miRNA binding site were developed and used in transient transfections of HeLa cells to determine whether the endogenous mir-15a, mir-21, or mir-23b miRNAs, respectively, could repress luciferase reporter gene expression.
The pGL3-mir-21 sensor plasmid was created by cloning the sequence ([…]; SEQ ID NO: 335), representing a sequence complementary to the mir-21 miRNA, into the Xba site of the pGL3-Control plasmid, placing the potential miRNA-binding site in the 3′UTR of the luciferase reporter. This reporter plasmid was used to transfect HeLa cells and it was observed that the endogenous mir-21 miRNA was able to inhibit luciferase expression from the pGL3-mir-21 sensor plasmid. Thus, to further evaluate the ability of the mir-21 miRNA to bind this target site encoded by the pGL3-mir-21 sensor plasmid, and to assess the ability of oligomeric compounds to interfere with mir-21-mediated silencing, pGL3-mir-21 sensor-expressing HeLa cells were treated with varying concentrations (10 nM or 50 nM) of the following oligomeric compounds: ISIS Number 327917 (SEQ ID NO: 335), a phosphorothioate uniform 2′-MOE oligomeric compound; ISIS Number 338697 ([…]; herein incorporated as SEQ ID NO: 524), a uniform 2′-MOE oligomeric compound targeting the mir-21 pri-miRNA molecule; and ISIS Number 328415 (SEQ ID NO: 524), a 2′-MOE 5-10-5 gapmer oligomeric compound targeting the mir-21 pri-miRNA. The uniform 2′-MOE phosphorothioate oligomeric compound ISIS Number 327901 (SEQ ID NO: 319) targeting an unrelated miRNA (mir-143) was used as a negative control. The data are the average of three trials and are presented in Table 44 as percent untreated control (luciferase plasmid only, not treated with oligomeric compound) luciferase expression, normalized to pRL-CMV levels.
In one embodiment, the oligomeric compounds ISIS Number 327917 (SEQ ID NO: 335), the phosphorothioate uniform 2′-MOE targeting mature mir-21; ISIS Number 358768 (SEQ ID NO: 918), the uniform 2′-MOE targeting the mir-21 pri-miRNA which stimulated the largest increase in pri-miRNA expression levels by real time quantitative RT-PCR; and ISIS Number 345382 (SEQ ID NO: 335), the 5-10-7 phosphorothioate 2′-MOE gapmer targeting mature mir-21 were selected for dose response studies in HeLa cells using the luciferase reporter system described in Example 27. ISIS Number 342683 (SEQ ID NO: 790), representing the scrambled nucleotide sequence of an unrelated PTP1B antisense oligonucleotide, was used as a negative control. HeLa cells expressing the pGL3-mir-21 sensor plasmid (described in Example 27) were treated with 1.9, 5.5, 16.7, and 50 nM of these oligomeric compounds, to assess the ability of oligomeric compounds to interfere with endogenous mir-21-mediated silencing of the pGL3-mir-21 sensor plasmid. The data are presented in Table 50 as percent untreated control (luciferase plasmid only, not treated with oligomeric compound) luciferase expression, normalized to pRL-CMV levels.

A further data set relates to mir-21 pri-miRNA. In words: mir-21 pri-miRNA expression in HeLa cells (real-time RT-PCR).

With “TCAACATCAGTCTGATAAGCTA (chemistry not given here) [ISIS 327917, uniform 2′-MOE PS; targets mir-21]”, the “expression levels of the mir-21 mature miRNA” value in the data set with mir-21 mature miRNA is 50 % of those of untreated control cells. Besides, the “expression of the luciferase reporter, pGL3-mir-21 sensor” value with mir-21 miRNA (HeLa, 10 nM or 50 nM) was “de-repressed the expression of the luciferase reporter”. Further, in the data set with mir-21 miRNA (HeLa, 1.9, 5.5, 16.7 and 50 nM), the “expression of the luciferase reporter, pGL3-mir-21 sensor, dose response” value is on record as “de-repressed the expression of the luciferase reporter, in a dose-dependent fashion”. Moreover, in the data set on mir-21 pri-miRNA (HeLa, 100 nM), the “increase in levels of the mir-21 pri-miRNA molecule” value is given as “approximately 2 fold” and the “levels of the mir-21 pri-miRNA molecule” value is recorded as “stimulate an increase in levels of the mir-21 pri-miRNA molecule”. The “mir-21 pri-miRNA levels, dose response” value with mir-21 pri-miRNA (HeLa, 25, 50, 100 and 200 nM) is reported as “dose-responsive induction of mir-21 pri-miRNA levels”.
